According to patent US20100240611A1, “METHODS FOR PREPARING DPP-IV INHIBITOR COMPOUNDS” (priority 2009, published 2010):

Molecular target: T1, DPP-IV (Homo sapiens, UniProt P27487)
T1 construct: in an in vivo protocol study in humans; from tissue; host or cells: human subjects (in vivo)
Assay: in vivo protocol study in humans: selectivity of DPP-IV inhibition over other dipeptidyl peptidases
Details: other dipeptidyl peptidases named in the block: DPP-VII, DPP-VIII, DPP-IX, FAP

T1 sequence (P27487 whole entry): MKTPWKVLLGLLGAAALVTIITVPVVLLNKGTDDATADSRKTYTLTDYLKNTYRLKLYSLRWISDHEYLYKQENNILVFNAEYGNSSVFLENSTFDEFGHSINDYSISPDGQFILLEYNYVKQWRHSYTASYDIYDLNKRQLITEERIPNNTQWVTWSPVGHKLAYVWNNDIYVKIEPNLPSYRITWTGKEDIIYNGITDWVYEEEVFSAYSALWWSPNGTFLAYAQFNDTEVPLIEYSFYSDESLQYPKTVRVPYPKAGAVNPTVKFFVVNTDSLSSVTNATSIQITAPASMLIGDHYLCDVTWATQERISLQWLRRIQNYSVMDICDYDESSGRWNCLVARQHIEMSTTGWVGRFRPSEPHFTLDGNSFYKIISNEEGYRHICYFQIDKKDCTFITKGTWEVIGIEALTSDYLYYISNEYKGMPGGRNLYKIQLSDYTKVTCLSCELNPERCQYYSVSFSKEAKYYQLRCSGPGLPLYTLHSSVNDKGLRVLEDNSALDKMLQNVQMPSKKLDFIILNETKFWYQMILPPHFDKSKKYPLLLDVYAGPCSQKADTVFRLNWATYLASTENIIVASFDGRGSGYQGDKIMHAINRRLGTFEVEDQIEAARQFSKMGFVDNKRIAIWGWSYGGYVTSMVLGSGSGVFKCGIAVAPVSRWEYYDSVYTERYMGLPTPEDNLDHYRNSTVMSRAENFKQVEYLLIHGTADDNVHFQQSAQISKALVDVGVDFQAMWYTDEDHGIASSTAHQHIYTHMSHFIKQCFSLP

With `O=C(CN[C@@H]1CCNC1)N1CCC[C@H]1B(O)O` [compound of formula (I), dutogliptin] the “selectivity for inhibition of DPP-IV over the other amino dipeptidyl peptidases” value was “maintained selectivity for inhibition of DPP-IV over the other amino dipeptidyl peptidases”.
